Experimental data as given in the supplement of paper PMC10307832.

How the values were obtained:
Test in all cases: relative viability (nuclei count vs DMSO), 5 days (fraction); higher = more cells survive
[1] = compound: CN(C)C[C@@H]1CCn2cc(c3ccccc32)C2=C(C(=O)NC2=O)c2cn(c3ccccc23)CCO1 [Ruboxistaurin] + Nc1nc2[nH]cc(CCc3ccc(C(=O)N[C@@H](CCC(=O)O)C(=O)O)cc3)c2c(=O)[nH]1 [Pemetrexed] (partner 0.2 µM)
How it was run: (§1)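 Each reported value is a median over duplicate plates. It expresses relative viability: treated-well nuclei count divided by vehicle-well nuclei count. Lung cancer cell lines in 1536-well plates were dosed by pin tool a day after seeding, alone with one drug or with a fixed anchor-drug dose plus five library-drug doses (not always all listed) in √10 steps, and nuclei were counted after 5 days.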

[2] = compound: CN(C)C[C@@H]1CCn2cc(c3ccccc32)C2=C(C(=O)NC2=O)c2cn(c3ccccc23)CCO1 [Ruboxistaurin] + Nc1ncn([C@H]2C[C@H](O)[C@@H](CO)O2)c(=O)n1 [Decitabine] (partner 2 µM)
How it was run: as §1

[3] = compound: CN(C)C[C@@H]1CCn2cc(c3ccccc32)C2=C(C(=O)NC2=O)c2cn(c3ccccc23)CCO1 [Ruboxistaurin] + CC(C)C[C@H](NC(=O)[C@H](Cc1ccccc1)NC(=O)c1cnccn1)B(O)O [Bortezomib] (partner 0.002 µM)
How it was run: as §1

[4] = compound: CN(C)C[C@@H]1CCn2cc(c3ccccc32)C2=C(C(=O)NC2=O)c2cn(c3ccccc23)CCO1 [Ruboxistaurin] + C[C@@H](Oc1cc(-c2cnn(C3CCNCC3)c2)cnc1N)c1c(Cl)ccc(F)c1Cl [Crizotinib] (partner 1 µM)
How it was run: as §1

Ruboxistaurin + OSI-027 = compound: CN(C)C[C@@H]1CCn2cc(c3ccccc32)C2=C(C(=O)NC2=O)c2cn(c3ccccc23)CCO1 [Ruboxistaurin] + COc1cccc2cc(-c3nc([C@H]4CC[C@H](C(=O)O)CC4)n4ncnc(N)c34)[nH]c12 [OSI-027] (partner 0.5 µM)
How it was run: as §1

Row | Cell Line | relative viability ([1]; first compound 0.08 µM) | relative viability ([1]; first compound 0.8 µM) | relative viability ([1]; first compound 2.53 µM) | relative viability ([1]; first compound 8 µM) | relative viability ([2]; first compound 0.08 µM) | relative viability ([2]; first compound 0.8 µM) | relative viability ([2]; first compound 2.53 µM) | relative viability ([2]; first compound 8 µM) | relative viability ([3]; first compound 0.08 µM) | relative viability ([3]; first compound 0.8 µM) | relative viability ([3]; first compound 2.53 µM) | relative viability ([3]; first compound 8 µM) | relative viability ([4]; first compound 0.08 µM) | relative viability ([4]; first compound 0.8 µM) | relative viability ([4]; first compound 2.53 µM) | relative viability ([4]; first compound 8 µM) | relative viability (Ruboxistaurin + OSI-027; first compound 0.08 µM) | relative viability (Ruboxistaurin + OSI-027; first compound 0.8 µM) | relative viability (Ruboxistaurin + OSI-027; first compound 2.53 µM) | relative viability (Ruboxistaurin + OSI-027; first compound 8 µM)
1 | LOU-NH91 | 0.398 | 0.405 | 0.407 | 0.434 | 0.909 | 0.772 | 0.855 | 0.775 | 0.475 | 0.473 | 0.443 | 0.457 | 0.806 | 0.694 | 0.757 | 0.77 | 0.748 | 0.629 | 0.663 | 0.676
2 | LU99A | 0.159 | 0.179 | 0.171 | 0.203 | 0.861 | 0.762 | 1.01 | 0.773 | 1.19 | 1.06 | 1.11 | 0.968 | 0.507 | 0.506 | 0.503 | 0.506 | 0.285 | 0.271 | 0.266 | 0.258
3 | LXF-289 | 0.884 | 0.91 | 0.906 | 1.02 | 0.377 | 0.338 | 0.38 | 0.418 | 1.03 | 0.941 | 0.976 | 1.06 | 0.826 | 0.758 | 0.826 | 0.951 | 0.804 | 0.74 | 0.9 | 0.623
4 | NCI-H23 | 0.73 | 0.541 | 0.666 | 0.45 | 0.279 | 0.259 | 0.364 | 0.283 | 1.2 | 0.871 | 1.01 | 0.929 | 0.542 | 0.395 | 0.552 | 0.533 | 0.601 | 0.448 | 0.593 | 0.457
5 | NCI-H322M | 0.646 | 0.528 | 0.596 | 0.47 | 0.746 | 0.656 | 0.6 | 0.619 | 1.2 | 1.16 | 1.16 | 1.28 | 0.96 | 0.863 | 0.949 | 1.11 | 0.646 | 0.514 | 0.514 | 0.377
6 | NCI-H441 | 0.254 | 0.307 | 0.287 | 0.278 | 0.278 | 0.309 | 0.277 | 0.269 | 0.636 | 0.296 | 0.431 | 0.448 | 0.787 | 0.708 | 0.771 | 0.636 | 0.65 | 0.474 | 0.607 | 0.456
7 | NCI-H460 | 0.0661 | 0.0571 | 0.0621 | 0.0636 | 0.49 | 0.448 | 0.533 | 0.595 | 1.1 | 1.03 | 0.916 | 0.824 | 0.772 | 0.822 | 1.02 | 0.537 | 0.604 | 0.557 | 0.501 | 0.217
8 | NCI-H520 | 0.666 | 0.506 | 0.532 | 0.494 | 0.535 | 0.477 | 0.544 | 0.612 | 0.856 | 0.66 | 0.806 | 0.423 | 0.838 | 0.698 | 0.758 | 0.693 | 0.192 | 0.258 | 0.233 | 0.218
9 | NCI-H596 | 0.542 | 0.473 | 0.478 | 0.444 | 0.978 | 0.892 | 0.987 | 0.973 | 0.978 | 0.443 | 0.932 | 1 | 1.03 | 0.981 | 1.03 | 0.795 | 0.811 | 0.552 | 0.799 | 0.508
10 | NCI-H647 | 0.173 | 0.222 | 0.196 | 0.161 | 0.442 | 0.33 | 0.373 | 0.547 | 1.21 | 0.817 | 0.869 | 1.3 | 1.03 | 0.849 | 1.15 | 0.995 | 0.754 | 0.532 | 0.432 | 0.42
11 | NCI-H650 | 0.995 | 0.948 | 0.981 | 0.817 | 0.312 | 0.343 | 0.296 | 0.34 | 0.816 | 0.698 | 0.927 | 0.915 | 0.785 | 0.775 | 0.733 | 0.729 | 0.662 | 0.49 | 0.584 | 0.523
12 | NCI-H661 | 0.932 | 0.873 | 0.921 | 0.874 | 0.563 | 0.555 | 0.578 | 0.61 | 0.887 | 0.664 | 0.883 | 0.88 | 0.991 | 0.924 | 1.08 | 1.08 | 0.78 | 0.599 | 0.695 | 0.6
13 | NCI-H838 | 0.248 | 0.222 | 0.222 | 0.225 | 0.476 | 0.445 | 0.526 | 0.583 | 0.876 | 0.772 | 1.09 | 0.618 | 0.899 | 0.729 | 1.03 | 0.817 | 0.4 | 0.33 | 0.301 | 0.313
14 | NCI-H1355 | 1.08 | 1 | 1.02 | 1.02 | 0.37 | 0.356 | 0.347 | 0.411 | 1.19 | 1.21 | 1.18 | 1.16 | 1.08 | 1 | 1.04 | 1 | 0.444 | 0.322 | 0.382 | 0.297
15 | NCI-H1437 | 0.309 | 0.299 | 0.315 | 0.313 | 0.571 | 0.621 | 0.622 | 0.702 | 0.64 | 0.461 | 0.526 | 0.516 | 0.984 | 0.829 | 0.958 | 1.08 | 0.985 | 0.793 | 0.835 | 0.804
